In patent publication US12552783B2, “Modulators of proteolysis and associated methods of use” (Arvinas Operations, Inc., priority 2018, dated 2026):

Target: KRas (Homo sapiens, UniProt P01116, G12C)
Experiment: KRas degradation in NCI-H2030 cells by Western blot, normalized to GAPDH (data of Table 14)
Format: cell-based
Parameters: host or cells: NCI-H2030
Conditions: for Dmax: NCI-H2030
Summary of the method: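 Cells plated overnight, switched to FBS-free medium for 24 h, then treated (0.3, 1, 3 μM final; 0.1% DMSO) for 24 h if VHL-based, otherwise 72 h. RIPA lysates (10 μg protein) blotted for KRas, signal normalized to GAPDH and compared with DMSO.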

SMILES | Percent Degradation at Indicated Concentration (μM) (H2030 cells, 0.3 μM) | Percent Degradation at Indicated Concentration (μM) (H2030 cells, 1 μM) | Percent Degradation at Indicated Concentration (μM) (H2030 cells, 3 μM) | Percent Degradation at Indicated Concentration (μM) (H2030, 0.3 μM) | Percent Degradation at Indicated Concentration (μM) (H2030, 1 μM) | Percent Degradation at Indicated Concentration (μM) (H2030, 3 μM) | Dmax [%]
C=CC(=O)N1CCN(c2nc(O[C@H](C)CN3CCC(OCCOCCOc4ccc5c(c4)CN(C4CCC(=O)NC4=O)C5=O)CC3)nc3c2CCN(c2cc(O)cc4ccccc24)C3)CC1 (stereo partly drawn) [compound 422, 3-(5-(2-(2-((1-((R)-2-((4-(4-acryloylpiperazin-1-yl)-7-(3-hydroxynaphthalen-1-yl)-5,6,7 ,8-tetrahydropyrido[3,4-d]pyrimidin-2-yl)oxy)propyl)piperidin-4-yl)oxy)ethoxy)ethoxy)-1-oxoisoindolin-2-yl)piperidine-2,6-dione] | C (Percent Degradation: C ≤ 35) | C (Percent Degradation: C ≤ 35) | C (Percent Degradation: C ≤ 35) | – | – | – | –
C=CC(=O)N1CCN(c2nc(O[C@H](C)CN3CCC(OCCOCCOCCOc4ccc5c(c4)CN(C4CCC(=O)NC4=O)C5=O)CC3)nc3c2CCN(c2cc(O)cc4ccccc24)C3)CC1 (stereo partly drawn) [compound 423, 3-(5-(2-(2-(2-((1-((R)-2-((4-(4-acryloylpiperazin-1-yl)-7-(3-hydroxynaphthalen-1-yl)-5,6,7,8-tetrahydropyrido[3,4-d]pyrimidin-2-yl)oxy)propyl)piperidin-4-yl)oxy)ethoxy)ethoxy)ethoxy)-1-oxoisoindolin-2-yl)piperidine-2,6-dione] | C (Percent Degradation: C ≤ 35) | C (Percent Degradation: C ≤ 35) | C (Percent Degradation: C ≤ 35) | – | – | – | –
CN(C)C(=O)CCNc1nc(N2CCN(C(=O)/C=C/CCOc3ccc4c(c3)C(=O)N(C3CCC(=O)NC3=O)C4=O)CC2)c2cc(Cl)c(-c3cc(O)cc4ccccc34)c(F)c2n1 (stereo not shown) [compound 468] | – | – | – | C (Percent Degradation: C ≤ 35) | C (Percent Degradation: C ≤ 35) | C (Percent Degradation: C ≤ 35) | ≤ 35
C=CC(=O)N1CCN(c2nc(Nc3ccc(OCCOCCOCC(=O)N[C@H](C(=O)N4C[C@H](O)C[C@H]4C(=O)N[C@@H](C)c4ccc(-c5scnc5C)cc4)C(C)(C)C)cc3)nc3c(F)c(-c4cc(O)cc5ccccc45)c(Cl)cc23)CC1 [compound 482] | – | – | – | C (Percent Degradation: C ≤ 35) | C (Percent Degradation: C ≤ 35) | C (Percent Degradation: C ≤ 35) | ≤ 35
C=CC(=O)N1CCN(c2nc(OCCCN(C)CCOCCOCCOCCOCC(=O)N[C@H](C(=O)N3C[C@H](O)C[C@H]3C(=O)N[C@@H](C)c3ccc(-c4scnc4C)cc3)C(C)(C)C)nc3c(F)c(-c4cc(O)cc5ccccc45)c(Cl)cc23)CC1 [compound 497, (2S,4R)-1-((2S)-21-((4-(4-acryloylpiperazin-1-yl)-6-chloro-8-fluoro-7-(3-hydroxynaphthalen-1-yl)quinazolin-2-yl)oxy)-2-(tert-butyl)-18-methyl-4-oxo-6,9,12,15-tetraoxa-3,18-diazahenicosanoyl)-4-hydroxy-N-((S)-1-(4-(4-methylthiazol-5-yl)phenyl)ethyl)pyrrolidine-2 carboxamide] | – | – | – | C (Percent Degradation: C ≤ 35) | C (Percent Degradation: C ≤ 35) | C (Percent Degradation: C ≤ 35) | ≤ 35

Continued, values first:

Percent Degradation at Indicated Concentration (μM) (H2030 cells, 0.3 μM) | Percent Degradation at Indicated Concentration (μM) (H2030 cells, 1 μM) | Percent Degradation at Indicated Concentration (μM) (H2030 cells, 3 μM) | Percent Degradation at Indicated Concentration (μM) (H2030, 0.3 μM) | Percent Degradation at Indicated Concentration (μM) (H2030, 1 μM) | Percent Degradation at Indicated Concentration (μM) (H2030, 3 μM) | Dmax [%] | SMILES
– | – | – | C (Percent Degradation: C ≤ 35) | C (Percent Degradation: C ≤ 35) | C (Percent Degradation: C ≤ 35) | ≤ 35 | C=CC(=O)N1CCN(c2nc(NCCC(=O)N(C)CCOc3ccc4c(c3)C(=O)N(C3CCC(=O)NC3=O)C4=O)nc3c(F)c(-c4cc(O)cc5ccccc45)c(Cl)cc23)CC1 (stereo not shown) [compound 467, 3-((4-(4-acryloylpiperazin-1-yl)-6-chloro-8-fluoro-7-(3-hydroxynaphthalen-1-yl)quinazolin-2-yl)amino)-N-(2-((2-(2,6-dioxopiperidin-3-yl)-1,3-dioxoisoindolin-5-yl)oxy)ethyl)-N-methylpropanamide]
– | – | – | C (Percent Degradation: C ≤ 35) | C (Percent Degradation: C ≤ 35) | C (Percent Degradation: C ≤ 35) | ≤ 35 | C=CC(=O)N1CCN(c2nc(OC3CCN(CCOCCOCCOCCOCC(=O)N[C@H](C(=O)N4C[C@H](O)C[C@H]4C(=O)N[C@@H](C)c4ccc(-c5scnc5C)cc4)C(C)(C)C)CC3)nc3c(F)c(-c4cc(O)cc5ccccc45)c(Cl)cc23)CC1 [compound 474, (2S,4R)-1-((2S)-17-(4-((4-(4-acryloylpiperazin-1-yl)-6-chloro-8-fluoro-7-(3-hydroxynaphthalen-1-yl)quinazolin-2-yl)oxy)piperidin-1-yl)-2-(tert-butyl)-4-oxo-6,9,12,15-tetraoxa-3-azaheptadecanoyl)-4-hydroxy-N-((S)-1-(4-(4-methylthiazol-5-yl)phenyl)ethyl)pyrrolidine-2 carboxamide]
– | – | – | C (Percent Degradation: C ≤ 35) | C (Percent Degradation: C ≤ 35) | C (Percent Degradation: C ≤ 35) | ≤ 35 | C=CC(=O)N1CCN(c2nc(Nc3ccc(OCCOCCOCCOCC(=O)N[C@H](C(=O)N4C[C@H](O)C[C@H]4C(=O)N[C@@H](C)c4ccc(-c5scnc5C)cc4)C(C)(C)C)cc3)nc3c(F)c(-c4cc(O)cc5ccccc45)c(Cl)cc23)CC1 [compound 483, (2S,4R)-1-((2S)-14-(4-((4-(4-acryloylpiperazin-1-yl)-6-chloro-8-fluoro-7-(3-hydroxynaphthalen-1-yl)quinazolin-2-yl)amino)phenoxy)-2-(tert-butyl)-4-oxo-6,9,12-trioxa-3-azatetradecanoyl)-4-hydroxy-N-((S)-1-(4-(4-methylthiazol-5-yl)phenyl)ethyl)pyrrolidine-2-carboxamide]
– | – | – | C (Percent Degradation: C ≤ 35) | C (Percent Degradation: C ≤ 35) | C (Percent Degradation: C ≤ 35) | ≤ 35 | C=CC(=O)N1CCN(c2nc(Nc3ccc(OCCOCCOCCOCCOCC(=O)N[C@H](C(=O)N4C[C@H](O)C[C@H]4C(=O)N[C@@H](C)c4ccc(-c5scnc5C)cc4)C(C)(C)C)cc3)nc3c(F)c(-c4cc(O)cc5ccccc45)c(Cl)cc23)CC1 [compound 484]
